Values after ≈ are worked out from the molar mass of the structure shown.
Columns and labels:
[1] = system: S. aureus 6538; assay: Bacteriostatic effect; format: cell-based; conditions: Staphylococcus aureus, 6538, 24 h, read-out: MIC, S. aureus 6538
[2] = target: EcSecAN68 (Escherichia coli, UniProt P10408); assay: biochemical; set-up: species or system E. coli
[3] = system: E. coli NR698; assay: Bacteriostatic effect; format: cell-based; conditions: Escherichia coli, NR698, 24 h, read-out: MIC, E. coli NR698
[4] = system: S. aureus Mu50; assay: Bacteriostatic effect; format: cell-based

Sequence of EcSecAN68 (P10408 1-610): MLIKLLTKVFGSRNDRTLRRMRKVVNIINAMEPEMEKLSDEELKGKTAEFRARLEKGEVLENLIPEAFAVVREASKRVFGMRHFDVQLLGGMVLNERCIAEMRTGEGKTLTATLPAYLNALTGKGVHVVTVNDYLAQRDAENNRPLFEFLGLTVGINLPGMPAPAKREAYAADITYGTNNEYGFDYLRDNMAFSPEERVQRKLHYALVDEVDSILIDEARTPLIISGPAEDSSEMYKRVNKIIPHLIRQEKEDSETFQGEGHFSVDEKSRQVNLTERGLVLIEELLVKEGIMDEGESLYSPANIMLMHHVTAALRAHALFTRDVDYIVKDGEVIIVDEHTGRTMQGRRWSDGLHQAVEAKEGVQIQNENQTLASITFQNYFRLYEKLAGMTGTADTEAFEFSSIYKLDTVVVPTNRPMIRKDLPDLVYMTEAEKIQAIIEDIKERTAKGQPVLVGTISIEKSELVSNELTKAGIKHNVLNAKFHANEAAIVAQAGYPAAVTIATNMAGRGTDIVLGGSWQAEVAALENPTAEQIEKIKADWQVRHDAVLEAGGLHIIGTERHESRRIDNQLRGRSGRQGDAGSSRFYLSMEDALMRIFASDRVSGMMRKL

| Compound | MIC [1] [µM] | IC50 [2] [µM] | MIC [3] [µM] | Fold by which 7b and 12a are more effective than the antibiotic (MIC) ([4]; S. aureus Mu50, label = antibiotic compared) [fold] | MIC ([4]; Staphylococcus aureus, MRSA, read-out: MIC, S. aureus Mu50) [µg/mL] |
| --- | --- | --- | --- | --- | --- |
| FC(F)(F)c1ccc(-c2nnc(Sc3cc(Cl)nc(Sc4ccccc4)n3)[nH]2)cc1 [Compound 12i, 4-Chloro-2-(phenylthio)-6-((5-(4-(trifluoromethyl)phenyl)-4H-1,2,4-triazol-3-yl)thio) pyrimidine] | 8.3 (≈ 3.87 µg/mL) | < 50 | 12.5 (≈ 5.82 µg/mL) |  |  |
| CSc1nc(Cl)cc(Sc2nnc(-c3cc(F)cc(F)c3)[nH]2)n1 [Compound 7g, 4-Chloro-6-((5-(3,5-difluorophenyl)-4H-1,2,4-triazol-3-yl)thio)-2-(methylthio) pyrimidine] | 41.6 (≈ 15.5 µg/mL) | > 100 | 50 (≈ 18.6 µg/mL) |  |  |
| FC(F)(F)c1cc(-c2nnc(Sc3nc(Cl)cc(NCc4ccccc4)n3)[nH]2)cc(C(F)(F)F)c1 [Compound 16e, N-Benzyl-2-((3-(3,5-bis(trifluoromethyl)phenyl)-4H-1,2,4-triazol-5-yl)thio)-6-chloro-pyrimidin-4-amine] | 50 (≈ 26.5 µg/mL) | > 50 | ≥ 250 |  |  |
| CN(C)[C@@H]1C(O)=C(C(N)=O)C(=O)[C@@]2(O)C(O)=C3C(=O)c4c(O)cccc4[C@@](C)(O)[C@H]3C[C@@H]12 [tetracycline] |  |  |  | > 80 | 63 (≈ 142 µM) |
| FC(F)(F)c1cc(-c2nnc(Sc3nc(Cl)cc(Cl)n3)o2)cc(C(F)(F)F)c1 [Compound 17, 2-(3,5-Bis(trifluoromethyl)phenyl)-5-((4,6-dichloropyrimidin-2-yl)thio)-1,3,4-oxadiazole] | 18.8 (≈ 8.67 µg/mL) | 70 | > 250 |  |  |
| FC(F)(F)c1cc(-c2nnc(Sc3cc(Cl)nc(Oc4ccccc4)n3)[nH]2)cc(C(F)(F)F)c1 [Compound 12c, 4-((5-(3,5-Bis(trifluoromethyl)phenyl)-4H-1,2,4-triazol-3-yl)thio)-6-chloro-2-phenoxy-pyrimidine] | 3.1 (≈ 1.61 µg/mL) | 9 | 8.3 (≈ 4.3 µg/mL) |  |  |
| CSc1nc(Cl)cc(Sc2nnc(-c3cc(C)cc(C)c3)[nH]2)n1 [Compound 7e, 4-Chloro-6-((5-(3,5-dimethylphenyl)-4H-1,2,4-triazol-3-yl)thio)-2-(methylthio) pyrimidine] | 50 (≈ 18.2 µg/mL) | 30 | 50 (≈ 18.2 µg/mL) |  |  |
| COc1cc(O)cc(-c2nnc(Sc3cc(Cl)nc(Sc4ccccc4)n3)[nH]2)c1 [Compound 12j, 3-(5-((6-Chloro-2-(phenylthio)pyrimidin-4-yl)thio)-4H-1,2,4-triazol-3-yl)-5-methoxy phenol] | ≥ 250 | < 50 | > 250 |  |  |

— paper PMC4778717 (ChemMedChem, 2015)
